Laboratory results: US20250353853A1, “FLAVIVIRUS INHIBITORS” (IRBM S.P.A., priority 2022, published 2025)
Structures can show the parent of a compound that is named as a salt.

Tested on: ZIKV replicon in Vero cells
Assay: ZIKV Replication Inhibition Assay (replicon, NanoLuc)
Settings: Zika virus, Vero, 72 h, read-out: Zika Replicon EC50

| Compound | EC50 [nM] |
| --- | --- |
| NC[C@H](Cc1ccccc1)[n+]1cc([N-]C(=O)Nc2cccc(C(F)(F)F)c2)on1 [Example 54, (S)-(3-(1-amino-3-phenylpropan-2-yl)-1,2,3-oxadiazol-3-ium-5-yl)((3-(trifluoromethyl)phenyl)carbamoyl)amide formate] | > 20000 |
| Cc1noc(C)c1-c1cccc(C[n+]2cc([N-]C(=O)Nc3cccc(C(F)(F)F)c3)on2)c1 [Example 94, (3-(3-(3,5-dimethylisoxazol-4-yl)benzyl)-1,2,3-oxadiazol-3-ium-5-yl)((3-(trifluoromethyl)phenyl)carbamoyl)amide] | 100 to 1000 |
| COc1ncc(-c2ccc(C[n+]3cc([N-]C(=O)Nc4cccc(C(F)(F)F)c4)on3)cc2)c(C)n1 [Example 90, (3-(4-(2-Methoxy-4-methylpyrimidin-5-yl)benzyl)-1,2,3-oxadiazol-3-ium-5-yl)((3-(trifluoromethyl)phenyl)carbamoyl)amide] | < 100 |
| O=C([N-]c1c[n+]([C@H](CF)Cc2ccccc2)no1)Nc1cccc(C(F)(F)F)c1 [Example 37, (S)-(3-(1-fluoro-3-phenylpropan-2-yl)-1,2,3-oxadiazol-3-ium-5-yl)((3-(trifluoromethyl)phenyl)carbamoyl)amide] | > 20000 |
| COc1ncc(-c2ccc(C[n+]3cc([N-]C(=O)Nc4cccc(Cl)c4)on3)cc2)c(C)n1 [Example 113, ((3-chlorophenyl)carbamoyl)(3-(4-(2-methoxy-4-methylpyrimidin-5-yl)benzyl)-1,2,3-oxadiazol-3-ium-5-yl)amide] | 100 to 1000 |
| Cc1noc(C)c1-c1ccc(C[n+]2cc([N-]C(=O)Nc3cccc(C(F)(F)F)c3)on2)cc1 [Example 78, (3-(4-(3,5-dimethylisoxazol-4-yl)benzyl)-1,2,3-oxadiazol-3-ium-5-yl)((3-(trifluoromethyl)phenyl)carbamoyl)amide] | < 100 |
| O=C([N-]c1c[n+](Cc2ccc(B(O)O)cn2)no1)Nc1cccc(C(F)(F)F)c1 [Example 122, (3-((5-boronopyridin-2-yl)methyl)-1,2,3-oxadiazol-3-ium-5-yl)((3-(trifluoromethyl)phenyl)carbamoyl)amide] | > 20000 |
| O=C([N-]c1c[n+](Cc2ccc(-c3ccccc3)cc2)no1)Nc1cccc(C(F)(F)F)c1 [Example 17, (3-([1,1′-Biphenyl]-4-ylmethyl)-1,2,3-oxadiazol-3-ium-5-yl)((3-(trifluoromethyl)phenyl)carbamoyl)amide] | 100 to 1000 |
| Cc1noc(C)c1-c1ncc(C[n+]2cc([N-]C(=O)Nc3cccc(C(F)(F)F)c3)on2)cn1 [Example 174, (3-((2-(3,5-dimethylisoxazol-4-yl)pyrimidin-5-yl)methyl)-1,2,3-oxadiazol-3-ium-5-yl)((3-(trifluoromethyl)phenyl)carbamoyl)amide] | 100 to 1000 |
| CC(C[n+]1cc([N-]C(=O)Nc2cccc(C(F)(F)F)c2)on1)c1ccccc1 (stereo not drawn) [Example 28, (3-(2-phenylpropyl)-1,2,3-oxadiazol-3-ium-5-yl)((3-(trifluoromethyl)phenyl)carbamoyl)amide] | 100 to 1000 |
| Cc1nn(C)cc1-c1ccc(C[n+]2cc([N-]C(=O)Nc3cccc(C(F)(F)F)c3)on2)cc1 [Example 96, (3-(4-(1,3-dimethyl-1H-pyrazol-4-yl)benzyl)-1,2,3-oxadiazol-3-ium-5-yl)((3-(trifluoromethyl)phenyl)carbamoyl)amide] | 100 to 1000 |
| C[C@H](Cc1ccccc1)[n+]1cc([N-]C(=O)Nc2cccc(C(F)(F)F)c2)on1 [Example 13, (R)-(3-(1-phenylpropan-2-yl)-1,2,3-oxadiazol-3-ium-5-yl)((3-(trifluoromethyl)phenyl)carbamoyl)amide] | 1000 to 20000 |
| Cc1nccnc1-c1ccc(C[n+]2cc([N-]C(=O)Nc3cccc(C(F)(F)F)c3)on2)cc1 [Example 86, (3-(4-(3-methylpyrazin-2-yl)benzyl)-1,2,3-oxadiazol-3-ium-5-yl)((3-(trifluoromethyl)phenyl)carbamoyl)amide] | 100 to 1000 |
| CC(Cc1ccccc1)[n+]1cc([N-]C(=O)Nc2cncc(C(F)(F)F)c2)on1 (stereo not drawn) [Example 15, (3-(1-Phenylpropan-2-yl)-1,2,3-oxadiazol-3-ium-5-yl)((5-(trifluoromethyl)pyridin-3-yl)carbamoyl)amide] | 1000 to 20000 |
| Cc1ncnc(C)c1-c1ccc(C[n+]2cc([N-]C(=O)Nc3cccc(C(F)(F)F)c3)on2)cc1 [Example 81, (3-(4-(4,6-dimethylpyrimidin-5-yl)benzyl)-1,2,3-oxadiazol-3-ium-5-yl)((3-(trifluoromethyl)phenyl)carbamoyl)amide] | < 100 |
| CC(Cc1ccccc1)[n+]1cc([N-]C(=O)Nc2cccc(Cl)c2)on1 (stereo not drawn) [Example 8, ((3-chlorophenyl)carbamoyl)(3-(1-phenylpropan-2-yl)-1,2,3-oxadiazol-3-ium-5-yl)amide] | > 20000 |
| Cc1cc(C[n+]2cc([N-]C(=O)Nc3cccc(C(F)(F)F)c3)on2)ccc1-c1cncnc1 [Example 87, (3-(3-methyl-4-(pyrimidin-5-yl)benzyl)-1,2,3-oxadiazol-3-ium-5-yl)((3-(trifluoromethyl)phenyl)carbamoyl)amide] | 100 to 1000 |

| Compound | EC50 [nM] |
| --- | --- |
| COc1ncc(-c2ccc(C[n+]3cc([N-]C(=O)Nc4cccc(C#N)c4)on3)cc2)c(C)n1 [Example 114, ((3-cyanophenyl)carbamoyl)(3-(4-(2-methoxy-4-methylpyrimidin-5-yl)benzyl)-1,2,3-oxadiazol-3-ium-5-yl)amide] | 1000 to 20000 |
| O=C([N-]c1c[n+](-c2ccccc2)no1)Nc1cccc(C(F)(F)F)c1 [Example 7, (3-phenyl-1,2,3-oxadiazol-3-ium-5-yl)((3-(trifluoromethyl)phenyl)carbamoyl) amide] | 1000 to 20000 |
| Cc1ncncc1-c1csc(C[n+]2cc([N-]C(=O)Nc3cccc(C(F)(F)F)c3)on2)c1 [Example 110, (3-((4-(4-methylpyrimidin-5-yl)thiophen-2-yl)methyl)-1,2,3-oxadiazol-3-ium-5-yl)((3-(trifluoromethyl)phenyl)carbamoyl)amide] | 100 to 1000 |
| Cc1noc(C)c1-c1ccc([C@@H](CN)[n+]2cc([N-]C(=O)Nc3cccc(C(F)(F)F)c3)on2)cc1 [Example 116, (S)-(3-(2-amino-1-(4-(3,5-dimethylisoxazol-4-yl)phenyl)ethyl)-1,2,3-oxadiazol-3-ium-5-yl)((3-(trifluoromethyl)phenyl)carbamoyl)amide formate] | 100 to 1000 |
| O=C([N-]c1c[n+](Cc2ccccc2)no1)Nc1cccc(C(F)(F)F)c1 [Example 6, (3-Benzyl-1,2,3-oxadiazol-3-ium-5-yl)((3-(trifluoromethyl)phenyl)carbamoyl) amide] | 1000 to 20000 |
| NC[C@@H](c1ccc(-c2cncnc2)cc1)[n+]1cc([N-]C(=O)Nc2cccc(C(F)(F)F)c2)on1 [Example 102, (R)-(3-(2-amino-1-(4-(pyrimidin-5-yl)phenyl)ethyl)-1,2,3-oxadiazol-3-ium-5-yl)((3-(trifluoromethyl)phenyl)carbamoyl)amide formate] | 100 to 1000 |
| O=C([N-]c1c[n+](Cc2ccc(-c3cncnc3)cn2)no1)Nc1cccc(C(F)(F)F)c1 [Example 108, (3-((5-(pyrimidin-5-yl)pyridin-2-yl)methyl)-1,2,3-oxadiazol-3-ium-5-yl)((3-(trifluoromethyl)phenyl)carbamoyl)amide] | 100 to 1000 |
| Cc1noc(C)c1-c1ccc(C[n+]2cc([N-]C(=O)Nc3cccc(C(F)(F)F)c3)on2)cn1 [Example 104, (3-((6-(3,5-dimethylisoxazol-4-yl)pyridin-3-yl)methyl)-1,2,3-oxadiazol-3-ium-5-yl)((3-(trifluoromethyl)phenyl)carbamoyl)amide] | < 100 |
| Cc1c(-c2ccc(C[n+]3cc([N-]C(=O)Nc4cccc(C(F)(F)F)c4)on3)cc2)cnn1C [Example 95, (3-(4-(1,5-dimethyl-1H-pyrazol-4-yl)benzyl)-1,2,3-oxadiazol-3-ium-5-yl)((3-(trifluoromethyl)phenyl)carbamoyl)amide] | 100 to 1000 |
| COc1ncc(-c2ccc(C[n+]3cc([N-]C(=O)Nc4ccccc4)on3)cc2)c(C)n1 [Example 115, (3-(4-(2-methoxy-4-methylpyrimidin-5-yl)benzyl)-1,2,3-oxadiazol-3-ium-5-yl)(phenylcarbamoyl)amide] | 1000 to 20000 |
| O=C([N-]c1c[n+](Cc2ccc(-c3cncnc3C(F)(F)F)cc2)no1)Nc1cccc(C(F)(F)F)c1 [Example 80, ((3-(trifluoromethyl)phenyl)carbamoyl)(3-(4-(4-(trifluoromethyl)pyrimidin-5-yl)benzyl)-1,2,3-oxadiazol-3-ium-5-yl)amide] | < 100 |
| CC(Cc1ccccc1)[n+]1cc([N-]C(=O)Nc2cc(C(F)(F)F)ccn2)on1 (stereo not drawn) [Example 16, (3-(1-phenylpropan-2-yl)-1,2,3-oxadiazol-3-ium-5-yl)((4-(trifluoromethyl)pyridin-2-yl)carbamoyl)amide] | > 20000 |
| CC(Cc1ccccc1)[n+]1cc([N-]C(=O)Nc2cc(F)cc(C(F)(F)F)c2)on1 (stereo not drawn) [Example 11, ((3-fluoro-5-(trifluoromethyl)phenyl)carbamoyl)(3-(1-phenylpropan-2-yl)-1,2,3-oxadiazol-3-ium-5-yl)amide] | > 20000 |
| N#Cc1ncncc1-c1ccc(C[n+]2cc([N-]C(=O)Nc3cccc(C(F)(F)F)c3)on2)cc1 [Example 106, (3-(4-(4-cyanopyrimidin-5-yl)benzyl)-1,2,3-oxadiazol-3-ium-5-yl)((3-(trifluoromethyl)phenyl)carbamoyl)amide] | 100 to 1000 |
| Cc1ncncc1-c1cccc(C[n+]2cc([N-]C(=O)Nc3cccc(C(F)(F)F)c3)on2)c1 [Example 83, (3-(3-(4-methylpyrimidin-5-yl)benzyl)-1,2,3-oxadiazol-3-ium-5-yl)((3-(trifluoromethyl)phenyl)carbamoyl)amide] | 100 to 1000 |
| Cc1ccccc1-c1ccc(C[n+]2cc([N-]C(=O)Nc3cccc(C(F)(F)F)c3)on2)cc1 [Example 21, (3-((2′-methyl-[1,1′-biphenyl]-4-yl)methyl)-1,2,3-oxadiazol-3-ium-5-yl)((3-(trifluoromethyl)phenyl)carbamoyl)amide] | 100 to 1000 |
